Patent US11136297B2, “Compositions and methods for treating cancer” (THE REGENTS OF THE UNIVERSITY OF CALIFORNIA, priority 2016, dated 2021)
“Also recorded” adds a separate entry of the source.

Assays:
[1] = molecular target: T1, full-length wild-type K-Ras (Homo sapiens, UniProt P01116); experiment: Disulfide fragment labeling of full-length wild-type K-Ras (Cys 72 selectivity); format: binding; conditions: wild-type K-Ras contains 4 native cysteine residues
T1 construct: His6; made in house; host or cells: Escherichia coli BL21(DE3)

[2] = molecular target: T2, H-Ras(M72C) GppNHp binding to Raf-1-RBD (Homo sapiens, UniProt P01112, M72C); experiment: Raf-1-RBD pull-down of labeled H-Ras(M72C) GppNHp; conditions: H-Ras(M72C) GppNHp pre-labeled with compound; various concentrations of H-Ras
T2 construct: and H-Ras (residues 1-166) were transformed into Escherichia coli; His6; made in house; host or cells: Escherichia coli BL21(DE3)
Protocol: FIGS. 29A-29D. […] FIG. 29D: Reconstruction of Ras cycle is achieved by inducing nucleotide exchange of 100 nM Ras by various concentrations of SOS^cat for either 1 or 2 hours and subsequent pull-down by Raf-1-RBD.
FIGS. 33A-33D. […] In FIG. 33B) through FIG. 33D), normalized pull-down signals are shown below the blot. S. E. M for each signal, number of replicates, and […] for each comparative Standard T-Test are summarized herein (see Tables 33B, 33C, and 33D). […] Comparative statistics were done for normalized pull-down signals between protein constructs of the same condition (i.e. in FIG. 33B) and FIG. 33C), column 1 for unlabeled and 1 for labeled protein, 2 for unlabeled and 2 for labeled, and so on were statistically compared, and in FIG. 33D) only the +SOS^cat and +GppNHp lanes were compared across protein constructs). FIG. 33A) Cartoon representation of pull down protocol. […] Reported values are quantified pull-down signals normalized to input. FIG. 33B) Cartoon representation of pull down protocol. […] FIG. 33C) Cartoon representation of pull down protocol. […] FIG. 33D) Cartoon representation of pull down protocol. Ras activation is achieved by catalyzing nucleotide exchange by SOS^cat and indirectly reading out activated Ras by subsequent pull down by Raf-1-RBD.

H-Ras(M72C) GDP = H-Ras(M72C) GDP (Homo sapiens, UniProt P01112, M72C); experiment: Intrinsic nucleotide affinity by EDTA catalyzed nucleotide exchange (Raf-1-RBD pull down readout); format: biochemical; set-up: and H-Ras (residues 1-166) were transformed into Escherichia coli; His6; made in house; host or cells: Escherichia coli BL21(DE3)
Protocol: Intrinsic Nucleotide Affinity by EDTA Catalyzed Nucleotide Exchange. For each EDTA catalyzed reaction, the total reaction volume was 500 μL. Each reaction had the following final composition: 100 nM Ras GDP (1 μg, 5 μL of 0.2 mg/mL Ras stock), 75 nM BSA (2.5 μg, 5 μL of 0.5 mg/mL BSA stock), 100 μM total nucleotide concentration (5 μL of various ratios of GDP:GppNHp from 10 mM stock solutions), 10 mM of EDTA (10 μL of 0.5M EDTA pH 8.0), 64 mM of MgCl2 (16 μL of 2M MgCl2 stock), 3 μM of His6-MBP-Raf-1-RBDwitt (80 μg, 18.3 μL of 4.38 mg/mL stock of His6-MBP-Raf-1-RBDwitt), and Raf Pull Down Buffer to volume (25 mM Tris (pH 7.2), 150 mM NaCl, 5 mM MgCl2, 1% NP-40, 5% glycerol, 20 mM imidazole). Prior to initiating the EDTA catalyzed nucleotide exchange, the Ras, BSA, nucleotide, and Raf Pull Down Buffer were mixed by pipette on ice. To each tube, the EDTA was added, sample was inverted X 3, and then placed in a pre-warmed tube rack at 30° C. The exchange was allowed to occur at 30° C. for 15 minutes, inverting each tube X 3 every 5 minutes. Once the 15 minutes of exchange was complete, MgCl2 was added to each tube and inverted X 3 and placed on ice for 15 minutes. During the quenching on ice, add 100 μL Ni-NTA slurry (Qiagen) to a cellulose acetate spin cup and spin at 5,000 rpm on a tabletop centrifuge for 30 seconds. Wash the beads with 400 μL of Raf Pull Down Buffer to wash away bead storage buffer. Before adding the beads and His6-tagged Raf-1-RBDwitt, take a 10 μL sample as a loading control and quench it with 5 μL 5×SDS loading buffer. To each spin cup filled with washed Ni-NTA beads, add the quenched EDTA catalyzed exchange reaction and the His6-tagged Raf-1-RBDwitt. Seal the spin cup with parafilm and let rotate at 4° C. for 1 h. After mixing, centrifuge the sample for 30 seconds at 5,000 rpm. Toss flow through. Wash the beads×5 with 400 μL of Raf Pull Down Buffer. After last wash, centrifuge one last time to remove any excess buffer stuck to the beads. To each cup, add 50 μL of 5×SDS loading buffer and mix by vortexing. Let the buffer sit on the beads for 5 minutes and then elute into a fresh tube by centrifuging at 5000 rpm for 1.5 minutes. Load 10 μL of each loading control sample and 25 μL of each eluted pull down onto a SDS-PAGE gel and transfer to a nitrocellulose blot for Western Blot analysis. Block with 5% BSA TBS buffer and then blot with pan Ras primary antibody at a 1:500 dilution in 5% BSA in TBST (Cell Signaling #3965). Blots were read out using LICOR compatible secondary antibodies and quantified. Signal from each GDP-only (i.e. 0% GppNHp) exchange was subtracted as background from the 20%, 50%, and 66% GppNHp pull-down signals for each protein construct. The signal for the GppNHp only lane (i.e. 100% GppNHp) was normalized to 1 and all other signals were made relative to this band within each protein construct tested.

modification of full-length wild-type K-Ras [1]: did not modify | Normalized Average (Nucleotide Exchange PD Assay) (H-Ras(M72C) GDP; H-Ras(M72C) 2C07, GppNHp only, normalized to 1): 1.00 | Normalized Average (Nucleotide Exchange PD Assay) (H-Ras(M72C) GDP; H-Ras(M72C) 2C07, GTP:GDP 0, background subtracted): 0.00 | Normalized Average (Nucleotide Exchange PD Assay) (H-Ras(M72C) GDP; H-Ras(M72C) 2C07, GTP:GDP 0.2, relative to GppNHp-only signal): 0.03 | Normalized Average (Nucleotide Exchange PD Assay) (H-Ras(M72C) GDP; H-Ras(M72C) 2C07, GTP:GDP 0.5, relative to GppNHp-only signal): 0.12 | Normalized Average (Nucleotide Exchange PD Assay) (H-Ras(M72C) GDP; H-Ras(M72C) 2C07, GTP:GDP 0.67, relative to GppNHp-only signal): 0.13
Compound: COc1ccc(-n2ncc(C(=O)NCCCSSCCN(C)C)c2C(F)(F)F)cc1 [Compound 2C07, N-(3-((2-(dimethylamino)ethyl)disulfanyl)propyl)-1-(4-methoxyphenyl)-5-(trifluoromethyl)-1H-pyrazole-4-carboxamide]
Raf-1-RBD binding [2]: does not inhibit Raf binding; also recorded: permits Raf-1-RBD binding | nucleotide preference of 2C07 bound Ras (H-Ras(M72C) GDP; varying ratios of GDP:GppNHp, EDTA catalyzed exchange): nucleotide preference for GDP over GppNHp
